Results from the NIST ThermoML archive (doi:10.1016/j.fluid.2013.06.021).

Experiment: xn = mol fraction of the nth substance listed
Conditions: 101 kPa, Liquid; for speed of sound: Sing-around technique in a fixed-path interferometer; for mass density: Vibrating tube method; for viscosity: Capillary tube (Ostwald / Ubbelohde) method

CCCCOCCO [2-butoxyethan-1-ol] + CC(C)O
Conditions	mass density [kg/m3]	speed of sound [m/s]	viscosity [mPa·s]
293.15 K, x1 = 0.0539	796.164	1178.8	–
293.15 K, x1 = 0.1088	805.962	1190.2	–
293.15 K, x1 = 0.1607	814.567	1200.9	–
293.15 K, x1 = 0.2041	821.305	1210	–
293.15 K, x1 = 0.2567	828.971	1220.4	–
293.15 K, x1 = 0.3095	836.163	1230.7	–
293.15 K, x1 = 0.4041	847.973	1247.7	–
293.15 K, x1 = 0.5041	859.135	1263.9	–
293.15 K, x1 = 0.6113	869.832	1279.6	–
293.15 K, x1 = 0.7078	878.523	1292.2	–
293.15 K, x1 = 0.8095	886.841	1304	–
293.15 K, x1 = 0.857	890.465	1309.2	–
293.15 K, x1 = 0.9069	894.11	1314.2	–
293.15 K, x1 = 0.9527	897.317	1318.8	–
298.15 K, x1 = 0.0539	791.98	1160.9	–
298.15 K, x1 = 0.054	–	–	2.105
298.15 K, x1 = 0.1088	801.77	1172.5	2.114
298.15 K, x1 = 0.1607	810.37	1183.5	2.132
298.15 K, x1 = 0.2041	817.11	1192.6	2.145
298.15 K, x1 = 0.2567	824.79	1203	2.166
298.15 K, x1 = 0.3095	831.99	1213.2	2.184
298.15 K, x1 = 0.4041	843.83	1230.4	2.247
298.15 K, x1 = 0.5041	855	1246.6	2.327
298.15 K, x1 = 0.6113	865.69	1262.2	2.427
298.15 K, x1 = 0.7078	874.37	1274.7	–
298.15 K, x1 = 0.7079	–	–	2.538
298.15 K, x1 = 0.8095	882.67	1286.7	2.648
298.15 K, x1 = 0.857	886.29	1291.8	2.714
298.15 K, x1 = 0.9069	889.93	1296.8	2.778
298.15 K, x1 = 0.9527	893.12	1301.5	2.838
303.15 K, x1 = 0.0539	787.87	1143.4	–
303.15 K, x1 = 0.054	–	–	1.803
303.15 K, x1 = 0.1088	797.64	1155.2	1.819
303.15 K, x1 = 0.1607	806.24	1166.2	1.847
303.15 K, x1 = 0.2041	812.99	1175.3	1.866
303.15 K, x1 = 0.2567	820.65	1185.7	1.889
303.15 K, x1 = 0.3095	827.86	1195.9	1.923
303.15 K, x1 = 0.4041	839.68	1213	1.988
303.15 K, x1 = 0.5041	850.85	1229.2	2.079
303.15 K, x1 = 0.6113	861.54	1244.9	2.194
303.15 K, x1 = 0.7078	870.2	1257.7	–
303.15 K, x1 = 0.7079	–	–	2.308
303.15 K, x1 = 0.8095	878.49	1269.7	2.427
303.15 K, x1 = 0.857	882.1	1274.8	2.487
303.15 K, x1 = 0.9069	885.74	1280	2.549
303.15 K, x1 = 0.9527	888.94	1284.7	2.604
308.15 K, x1 = 0.0539	783.58	1125.5	–
308.15 K, x1 = 0.054	–	–	1.576
308.15 K, x1 = 0.1088	793.36	1137.7	1.587
308.15 K, x1 = 0.1607	801.96	1148.9	1.606
308.15 K, x1 = 0.2041	808.71	1157.9	1.624
308.15 K, x1 = 0.2567	816.4	1168.5	1.654
308.15 K, x1 = 0.3095	823.61	1178.8	1.678
308.15 K, x1 = 0.4041	835.44	1195.9	1.734
308.15 K, x1 = 0.5041	846.62	1212.1	1.809
308.15 K, x1 = 0.6113	857.32	1228	1.886
308.15 K, x1 = 0.7078	865.98	1240.6	–
308.15 K, x1 = 0.7079	–	–	1.968
308.15 K, x1 = 0.8095	874.28	1252.6	2.056
308.15 K, x1 = 0.857	877.88	1257.8	2.101
308.15 K, x1 = 0.9069	881.52	1263	2.145
308.15 K, x1 = 0.9527	884.72	1267.7	2.188
313.15 K, x1 = 0.0539	778.94	1108	–
313.15 K, x1 = 0.1088	788.77	1120.2	–
313.15 K, x1 = 0.1607	797.4	1131.4	–
313.15 K, x1 = 0.2041	804.16	1140.5	–
313.15 K, x1 = 0.2567	811.87	1151.3	–
313.15 K, x1 = 0.3095	819.11	1161.5	–
313.15 K, x1 = 0.4041	830.99	1178.7	–
313.15 K, x1 = 0.5041	842.22	1195.1	–
313.15 K, x1 = 0.6113	852.97	1211.1	–
313.15 K, x1 = 0.7078	861.66	1223.7	–
313.15 K, x1 = 0.8095	870.01	1235.8	–
313.15 K, x1 = 0.857	873.63	1241	–
313.15 K, x1 = 0.9069	877.27	1246.2	–
313.15 K, x1 = 0.9527	880.47	1250.8	–
